From patent US9695155B2, “Herbicidal substituted pyrimidinyloxy benzene compounds” (E. I. DU PONT DE NEMOURS AND COMPANY, priority 2013, dated 2017)

How the values were obtained:
[1] = test system: wheat; assay: Test A preemergence; format: in vivo, Triticum aestivum
In short: (§1)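 Greenhouse pot test, loam/sand soil. Formulation: non-phytotoxic solvent mix plus surfactant. Pre: directed spray onto soil after sowing. Post: plants at 1–2 leaf, 2–10 cm. Rated visually vs untreated controls at ~10 d, 0 (no effect) to 100 (complete control).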

[2] = test system: chickweed; assay: Test C postemergence; format: in vivo, Stellaria media
In short: (§2)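 Plants were kept under greenhouse conditions for 13–15 days following spray. Pre-emergent application went to soil (loam–sand), post-emergent to foliage at 1–4 leaves. Evaluation: visual, percent control against untreated checks.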

[3] = test system: pigweed; assay: Test C preemergence; format: in vivo, Amaranthus retroflexus; conditions: for Pigweed plant response rating: preemergence; for Plant response rating, Pigweed: Preemergence, 31 g ai/ha, scale 0 to 100, 0 no effect, 100 complete control
In short: as §2

[4] = test system: barnyardgrass; assay: Test C postemergence; format: in vivo, Echinochloa crus-galli
In short: as §2

[5] = test system: large (Lg) crabgrass; assay: Test C postemergence; format: in vivo, Digitaria sanguinalis
In short: as §2

[6] = test system: lambsquarters; assay: Test C postemergence; format: in vivo, Chenopodium album; conditions: for Plant response rating, Lambsquarters: scale 0 to 100 (0 no effect, 100 complete control)
In short: as §2

[7] = test system: wheat, winter; assay: Test C postemergence; format: in vivo, Triticum aestivum; conditions: for Plant response rating, Wheat: scale 0 to 100 (0 no effect, 100 complete control)
In short: as §2

[8] = test system: large (Lg) crabgrass; assay: Test C preemergence; format: in vivo, Digitaria sanguinalis; conditions: for Crabgrass, Large plant response rating: preemergence; for Plant response rating, Crabgrass, Large: Preemergence, 31 g ai/ha, scale 0 to 100, 0 no effect, 100 complete control
In short: as §2

[9] = test system: sedge, umbrella; assay: Test B flooded paddy test; format: in vivo, Cyperus difformis; conditions: Flood, 250 g ai/ha; 0 to 100 scale where 0 is no effect and 100 is complete control
In short: (§3)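 Evaluation is visual, against untreated controls, 13 to 15 days after treatment. Before treatment, plants reached the 2-leaf stage; pots were then flooded 3 cm deep, compound was added to the water, and that level was maintained. Ratings run 0 to 100, with 100 meaning complete control.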

[10] = test system: large (Lg) crabgrass; assay: Test A postemergence; format: in vivo, Digitaria sanguinalis
In short: as §1

[11] = test system: corn; assay: Test C postemergence; format: in vivo, Zea mays
In short: as §2

[12] = test system: giant foxtail; assay: Test C postemergence; format: in vivo, Setaria faberii
In short: as §2

[13] = test system: corn; assay: Test A preemergence; format: in vivo, Zea mays
In short: as §1

[14] = test system: barnyardgrass; assay: Test B flooded paddy test; format: in vivo, Echinochloa crus-galli; conditions: Flood, 250 g ai/ha; 0 to 100 scale where 0 is no effect and 100 is complete control
In short: as §3

[15] = test system: waterhemp; assay: Test C postemergence; format: in vivo, Amaranthus rudis; conditions: for Plant response rating, Waterhemp: scale 0 to 100 (0 no effect, 100 complete control)
In short: as §2

[16] = 16 g ai/ha, postemergence, 0 is no effect, 100 is complete control
[17] = 125 g ai/ha, postemergence, visual rating, scale 0 to 100 (0 no effect, 100 complete control)
[18] = Postemergence, 62 g ai/ha, scale 0 to 100 (0 no effect, 100 complete control)
[19] = 16 g ai/ha, scale 0 to 100 (0 no effect, 100 complete control)
[20] = 62 g ai/ha, scale 0 (no effect) to 100 (complete control)
[21] = 125 g ai/ha, scale 0 (no effect) to 100 (complete control)
[22] = Postemergence, 31 g ai/ha, scale 0 to 100 (0 no effect, 100 complete control), 13 to 15 days
[23] = 125 g ai/ha, postemergence, visual rating
[24] = 1000 g ai/ha, 0 to 100 scale, 0 no effect, 100 complete control
[25] = 125 g ai/ha, 0 to 100 scale where 0 is no effect and 100 is complete control
[26] = 16 g ai/ha, postemergence, visual rating, scale 0 to 100 (0 no effect, 100 complete control), 13 to 15 days
[27] = Postemergence, 31 g ai/ha, 13 to 15 days

Compound: N#Cc1cn(-c2c(Br)cccc2Oc2ncc(Cl)cn2)nn1 [Compound 116]
- Wheat plant response rating ([1]; 1000 g ai/ha, 0 to 100 scale, 0 no effect, 100 complete control, approx. 10 days): 40
- Plant response rating (0 to 100), Chickweed [2, 16]: 40
- Plant response rating, Chickweed [2, 17]: 80
- Plant response rating, Chickweed [2, 18]: 55
- Pigweed plant response rating [3, 19]: 75
- Pigweed plant response rating [3, 20]: 100
- Pigweed plant response rating [3, 21]: 100
- Plant response rating, Pigweed [3]: 100
- Plant response rating (0 to 100), Barnyardgrass [4, 16]: 0
- Plant response rating, Barnyardgrass [4, 17]: 20
- Plant response rating, Barnyardgrass [4, 22]: 5
- Plant response rating, Barnyardgrass [4, 18]: 5
- Plant response rating (0 to 100), Crabgrass, Large [5, 16]: 5
- Plant response rating, Crabgrass, Large [5, 17]: 30
- Plant response rating, Crabgrass, Large [5, 18]: 15
- Plant response rating (0 to 100), Lambsquarters [6, 16]: 5
- Plant response rating, Lambsquarters [6, 23]: 80
- Plant response rating, Lambsquarters ([6]; Postemergence, 62 g ai/ha): 50
- Plant response rating (0 to 100), Wheat [7, 16]: 0
- Plant response rating, Wheat [7, 23]: 5
- Plant response rating, Wheat ([7]; Postemergence, 62 g ai/ha): 5
- Crabgrass, Large plant response rating [8, 19]: 5
- Crabgrass, Large plant response rating [8, 20]: 100
- Crabgrass, Large plant response rating [8, 21]: 100
- Plant response rating, Crabgrass, Large [8]: 100
- Plant response rating, Sedge, Umbrella [9]: 30
- Plant response rating, Crabgrass, Large [10, 24]: 100
- Plant response rating (0 to 100), Corn [11, 16]: 0
- Plant response rating, Corn [11, 17]: 5
- Plant response rating, Corn [11, 18]: 5
- Plant response rating (0 to 100), Foxtail, Giant [12, 16]: 30
- Plant response rating, Foxtail, Giant [12, 17]: 10
- Plant response rating, Foxtail, Giant [12, 18]: 40
- Plant response rating, Corn [13, 24]: 30
- Plant response rating, Barnyardgrass [14]: 0
- Plant response rating (0 to 100), Waterhemp [15, 16]: 65
- Plant response rating, Waterhemp [15, 23]: 95
- Plant response rating, Waterhemp ([15]; Postemergence, 62 g ai/ha): 80

Compound: CCOc1cnn(-c2c(C#N)cccc2Oc2ncc(Cl)cn2)c1 [Compound 92]
- Plant response rating, Wheat [1, 25]: 0
- Chickweed plant response rating [2, 26]: 50
- Plant response rating (0 to 100), Chickweed ([2]; 125 g ai/ha, postemergence): 70
- Plant response rating, Chickweed [2, 22]: 60
- Plant response rating, Chickweed [2, 18]: 60
- Pigweed plant response rating [3, 19]: 90
- Pigweed plant response rating [3, 20]: 100
- Pigweed plant response rating [3, 21]: 100
- Plant response rating, Pigweed [3]: 85
- Barnyardgrass plant response rating [4, 26]: 5
- Plant response rating (0 to 100), Barnyardgrass ([4]; 125 g ai/ha, postemergence): 10
- Plant response rating, Barnyardgrass [4, 22]: 5
- Plant response rating, Barnyardgrass [4, 18]: 5
- Crabgrass, Large plant response rating [5, 26]: 5
- Plant response rating (0 to 100), Crabgrass, Large ([5]; 125 g ai/ha, postemergence): 10
- Plant response rating, Crabgrass, Large [5, 22]: 5
- Plant response rating, Crabgrass, Large [5, 18]: 5
- Plant response rating (0 to 100), Lambsquarters ([6]; 125 g ai/ha, postemergence): 75
- Plant response rating, Lambsquarters [6, 27]: 35
- Plant response rating, Lambsquarters ([6]; Postemergence, 62 g ai/ha): 40
- Plant response rating (0 to 100), Wheat ([7]; 125 g ai/ha, postemergence): 5
- Plant response rating, Wheat [7, 27]: 0
- Plant response rating, Wheat ([7]; Postemergence, 62 g ai/ha): 0
- Crabgrass, Large plant response rating [8, 19]: 90
- Crabgrass, Large plant response rating [8, 20]: 100
- Crabgrass, Large plant response rating [8, 21]: 100
- Plant response rating, Crabgrass, Large [8]: 100
- Plant response rating, Sedge, Umbrella [9]: 90
- Plant response rating, Crabgrass, Large [10, 25]: 80
- Plant response rating, Crabgrass, Large ([10]; 500 g ai/ha, 0 to 100 scale where 0 is no effect and 100 is complete control): 90
- Corn plant response rating [11, 26]: 5
- Plant response rating (0 to 100), Corn ([11]; 125 g ai/ha, postemergence): 5
- Plant response rating, Corn [11, 22]: 5
- Plant response rating, Corn [11, 18]: 5
- Foxtail, Giant plant response rating [12, 26]: 5
- Plant response rating (0 to 100), Foxtail, Giant ([12]; 125 g ai/ha, postemergence): 10
- Plant response rating, Foxtail, Giant [12, 22]: 5
- Plant response rating, Foxtail, Giant [12, 18]: 5
- Plant response rating, Corn [13, 25]: 10
- Corn plant response rating ([13]; 500 g ai/ha, 0 to 100 scale, 0 no effect, 100 complete control, approx. 10 days): 40
- Plant response rating, Barnyardgrass [14]: 20
- Plant response rating (0 to 100), Waterhemp ([15]; 125 g ai/ha, postemergence): 80
- Plant response rating, Waterhemp [15, 27]: 45
- Plant response rating, Waterhemp ([15]; Postemergence, 62 g ai/ha): 75
